According to ChEMBL document CHEMBL4219129, “Design, synthesis and biological evaluation of spiropyrimidinetriones oxazolidinone derivatives as antibacterial agents” (2018):
≈ marks a conversion by molar mass, not a printed value.

What was measured:
Format in all cases: functional
[1] = tested on: Staphylococcus epidermidis; assay: Antibacterial activity against linezolid-resistant Staphylococcus epidermidis 1117174
Staphylococcus aureus [2] = assay: Antibacterial activity against Staphylococcus aureus FDA 209P
[3] = tested on: Staphylococcus epidermidis; assay: Antibacterial activity against methicillin-resistant Staphylococcus epidermidis ATCC 35984
Escherichia coli [4] = assay: Antibacterial activity against TolC-deficient Escherichia coli
Staphylococcus aureus [5] = assay: Antibacterial activity against […] Staphylococcus aureus ATCC 13709 SMITH
Staphylococcus aureus [6] = assay: Antibacterial activity against PVL positive Staphylococcus aureus
[7] = tested on: Staphylococcus epidermidis; assay: Antibacterial activity against Staphylococcus epidermidis ATCC 12228
[8] = tested on: Staphylococcus epidermidis; assay: Antibacterial activity against linezolid-resistant Staphylococcus epidermidis 1089191
Staphylococcus aureus [9] = assay: Antibacterial activity against methicillin-resistant Staphylococcus aureus USA300 BAA-1556
Staphylococcus aureus [10] = assay: Antibacterial activity against methicillin-resistant Staphylococcus aureus DB-00026
Staphylococcus aureus [11] = assay: Antibacterial activity against methicillin-resistant Staphylococcus aureus 1201984
Staphylococcus aureus [12] = assay: Antibacterial activity against Staphylococcus aureus ATCC 29213
Staphylococcus aureus [13] = assay: Antibacterial activity against methicillin-resistant Staphylococcus aureus 562
Escherichia coli [14] = assay: Antibacterial activity against Escherichia coli MG1655; conditions: K-12 substr. MG1655
Staphylococcus aureus [15] = assay: Antibacterial activity against linezolid-resistant Staphylococcus aureus O-128
Staphylococcus aureus [16] = assay: Antibacterial activity against Staphylococcus aureus Mu50 ATCC 700699

Compound | MIC [1] [µg/mL] | MIC (Staphylococcus aureus [2]) [µg/mL] | MIC [3] [µg/mL] | MIC (Escherichia coli [4]) [µg/mL] | MIC (Staphylococcus aureus [5]) [µg/mL] | MIC (Staphylococcus aureus [6]) [µg/mL] | MIC [7] [µg/mL] | MIC [8] [µg/mL] | MIC (Staphylococcus aureus [9]) [µg/mL] | MIC (Staphylococcus aureus [10]) [µg/mL] | MIC (Staphylococcus aureus [11]) [µg/mL] | MIC (Staphylococcus aureus [12]) [µg/mL] | MIC (Staphylococcus aureus [13]) [µg/mL] | MIC (Escherichia coli [14]) [µg/mL] | MIC (Staphylococcus aureus [15]) [µg/mL] | MIC (Staphylococcus aureus [16]) [µg/mL]
O=C1NC(=O)C2(Cc3cc(-c4ccc(N5C[C@H](CNC(=O)C(F)(F)F)OC5=O)cc4F)ccc3N3CCCC32)C(=O)N1 (some centres not stated) | 32 (≈ 54.3 µM) | 16 (≈ 27.1 µM) | 4 (≈ 6.79 µM) | 16 (≈ 27.1 µM) | 32 (≈ 54.3 µM) | 8 (≈ 13.6 µM) | 8 (≈ 13.6 µM) | 32 (≈ 54.3 µM) | 16 (≈ 27.1 µM) | 16 (≈ 27.1 µM) | 8 (≈ 13.6 µM) | 32 (≈ 54.3 µM) | 8 (≈ 13.6 µM) | > 32 | 32 (≈ 54.3 µM) | 8 (≈ 13.6 µM)
O=C1O[C@@H](CO)CN1c1ccc2c(c1)CC1(C(=O)NNC1=O)C1COCCN21 (some centres not stated) | 32 (≈ 82.4 µM) | > 32 | > 32 | > 32 | > 32 | > 32 | > 32 | > 32 | > 32 | > 32 | > 32 | > 32 | > 32 | > 32 | > 32 | > 32
CC(=O)NC[C@H]1CN(c2ccc3c(c2)CC2(C(=O)NNC2=O)C2COCCN32)C(=O)O1 (some centres not stated) | 32 (≈ 74.5 µM) | > 32 | > 32 | > 32 | > 32 | > 32 | > 32 | > 32 | > 32 | > 32 | > 32 | > 32 | > 32 | > 32 | > 32 | > 32
CCOC(=O)NC[C@H]1CN(c2ccc(-c3ccc4c(c3)CC3(C(=O)NC(=O)NC3=O)C3CCCN43)c(F)c2)C(=O)O1 (some centres not stated) | > 32 | 8 (≈ 14.1 µM) | 4 (≈ 7.07 µM) | 8 (≈ 14.1 µM) | > 32 | 8 (≈ 14.1 µM) | 4 (≈ 7.07 µM) | > 32 | 8 (≈ 14.1 µM) | 8 (≈ 14.1 µM) | 8 (≈ 14.1 µM) | 8 (≈ 14.1 µM) | 4 (≈ 7.07 µM) | > 32 | 32 (≈ 56.6 µM) | 4 (≈ 7.07 µM)
O=C1NC(=O)C2(Cc3cc(N4C[C@H](CO)OC4=O)ccc3N3CCOCC32)C(=O)N1 (some centres not stated) | 32 (≈ 76.9 µM) | > 32 | > 32 | > 32 | > 32 | > 32 | > 32 | > 32 | > 32 | > 32 | > 32 | > 32 | > 32 | > 32 | > 32 | > 32
O=C1O[C@@H](CO)CN1c1ccc(-c2ccc3c(c2)CC2(C(=O)NNC2=O)C2CCCN32)c(F)c1 (some centres not stated) | ≥ 32 | 32 (≈ 68.6 µM) | – | > 32 | ≥ 32 | > 32 | 2 to 32 (≈ 4.29 to 68.6 µM) | > 32 | 32 (≈ 68.6 µM) | 8 to 16 (≈ 17.2 to 34.3 µM) | > 32 | 4 to 32 (≈ 8.58 to 68.6 µM) | 2 to 32 (≈ 4.29 to 68.6 µM) | > 32 | > 32 | 16 (≈ 34.3 µM)
CCC(=O)NC[C@H]1CN(c2ccc(-c3ccc4c(c3)CC3(C(=O)NC(=O)NC3=O)C3COCCN43)c(F)c2)C(=O)O1 (some centres not stated) | 32 (≈ 56.6 µM) | 16 (≈ 28.3 µM) | 4 (≈ 7.07 µM) | 4 (≈ 7.07 µM) | > 32 | 16 (≈ 28.3 µM) | 4 (≈ 7.07 µM) | > 32 | 16 (≈ 28.3 µM) | 16 (≈ 28.3 µM) | 16 (≈ 28.3 µM) | 8 (≈ 14.1 µM) | 4 (≈ 7.07 µM) | > 32 | 32 (≈ 56.6 µM) | 4 (≈ 7.07 µM)
CS(=O)(=O)NC[C@H]1CN(c2ccc(-c3ccc4c(c3)CC3(C(=O)NC(=O)NC3=O)C3COCCN43)c(F)c2)C(=O)O1 (some centres not stated) | > 32 | 32 (≈ 54.5 µM) | 16 to 32 (≈ 27.2 to 54.5 µM) | 32 (≈ 54.5 µM) | > 32 | 32 (≈ 54.5 µM) | 16 to 32 (≈ 27.2 to 54.5 µM) | > 32 | 32 (≈ 54.5 µM) | 32 (≈ 54.5 µM) | 32 (≈ 54.5 µM) | 32 (≈ 54.5 µM) | 32 (≈ 54.5 µM) | > 32 | > 32 | 16 (≈ 27.2 µM)
COC(=O)NC[C@H]1CN(c2ccc(-c3ccc4c(c3)CC3(C(=O)NC(=O)NC3=O)C3COCCN43)c(F)c2)C(=O)O1 (some centres not stated) | 32 (≈ 56.4 µM) | 8 (≈ 14.1 µM) | 2 (≈ 3.52 µM) | 4 (≈ 7.05 µM) | > 32 | 8 (≈ 14.1 µM) | 4 (≈ 7.05 µM) | > 32 | 8 (≈ 14.1 µM) | 8 (≈ 14.1 µM) | 16 (≈ 28.2 µM) | 4 (≈ 7.05 µM) | 4 (≈ 7.05 µM) | > 32 | 32 (≈ 56.4 µM) | 4 (≈ 7.05 µM)
CC(=O)NC[C@H]1CN(c2ccc3c(c2)CC2(C(=O)NC(=O)NC2=O)C2COCCN32)C(=O)O1 (some centres not stated) | 32 (≈ 70 µM) | > 32 | > 32 | > 32 | > 32 | > 32 | > 32 | > 32 | > 32 | > 32 | > 32 | > 32 | > 32 | > 32 | > 32 | > 32
CCC(=O)NC[C@H]1CN(c2ccc(-c3ccc4c(c3)CC3(C(=O)NC(=O)NC3=O)C3CCCN43)c(F)c2)C(=O)O1 (some centres not stated) | 32 (≈ 58.2 µM) | 8 (≈ 14.6 µM) | 4 (≈ 7.28 µM) | 8 (≈ 14.6 µM) | 32 (≈ 58.2 µM) | 8 (≈ 14.6 µM) | 8 (≈ 14.6 µM) | > 32 | 16 (≈ 29.1 µM) | 8 (≈ 14.6 µM) | 8 (≈ 14.6 µM) | 16 (≈ 29.1 µM) | 4 (≈ 7.28 µM) | > 32 | 32 (≈ 58.2 µM) | 8 (≈ 14.6 µM)
CCOC(=O)NC[C@H]1CN(c2ccc(-c3ccc4c(c3)CC3(C(=O)NC(=O)NC3=O)C3COCCN43)c(F)c2)C(=O)O1 (some centres not stated) | 32 (≈ 55 µM) | 16 (≈ 27.5 µM) | 8 (≈ 13.8 µM) | 8 (≈ 13.8 µM) | > 32 | 32 (≈ 55 µM) | 8 (≈ 13.8 µM) | > 32 | 16 (≈ 27.5 µM) | 16 (≈ 27.5 µM) | 32 (≈ 55 µM) | 16 (≈ 27.5 µM) | 8 (≈ 13.8 µM) | > 32 | > 32 | 8 (≈ 13.8 µM)
CC(=O)NC[C@H]1CN(c2ccc(-c3ccc4c(c3)CC3(C(=O)NC(=O)NC3=O)C3COCCN43)c(F)c2)C(=O)O1 (some centres not stated) | 32 (≈ 58 µM) | 8 (≈ 14.5 µM) | 2 (≈ 3.63 µM) | 2 (≈ 3.63 µM) | 32 (≈ 58 µM) | 8 (≈ 14.5 µM) | 4 (≈ 7.25 µM) | > 32 | 8 (≈ 14.5 µM) | 8 (≈ 14.5 µM) | 16 (≈ 29 µM) | 4 (≈ 7.25 µM) | 4 (≈ 7.25 µM) | > 32 | 32 (≈ 58 µM) | 4 (≈ 7.25 µM)
